Assay results from the supplement of paper PMC10307832.

What was measured:
Assay in all cases: relative viability (nuclei count vs DMSO), 5 days (fraction); higher = more cells survive
LK-2 = system: LK-2
Summary of the method: (§1)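 One day after seeding in 1536-well plates, lung cancer cell lines were dosed by pin tool. Dosing was either single-drug or a fixed anchor-drug dose plus five library-drug doses (not always all listed) in √10 steps. After 5 days, nuclei were stained in one fix-and-stain step and counted on 4× images, and relative viability is the nuclei count of treated wells over that of vehicle wells, given as the median of duplicate plates.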

LC-2-ad = system: LC-2-ad
Summary of the method: as §1

NCI-H727 = system: NCI-H727
Summary of the method: as §1

NCI-H1650 = system: NCI-H1650
Summary of the method: as §1

PC-14 = system: PC-14
Summary of the method: as §1

LCLC-97TM1 = system: LCLC-97TM1
Summary of the method: as §1

COR-L23 = system: COR-L23
Summary of the method: as §1

LCLC-103H = system: LCLC-103H
Summary of the method: as §1

NCI-H1793 = system: NCI-H1793
Summary of the method: as §1

NCI-H2347 = system: NCI-H2347
Summary of the method: as §1

SW 900 = system: SW 900
Summary of the method: as §1

`CC(=O)O[C@@]12CO[C@@H]1C[C@H](O)[C@@]1(C)C(=O)[C@H](O)C3=C(C)[C@@H](OC(=O)[C@H](O)[C@@H](NC(=O)OC(C)(C)C)c4ccccc4)C[C@@](O)([C@@H](OC(=O)c4ccccc4)[C@H]21)C3(C)C` [Docetaxel] + CC(=O)Nc1cccc(-n2c(=O)n(C3CC3)c(=O)c3c(Nc4ccc(I)cc4F)n(C)c(=O)c(C)c32)c1 [Trametinib] (partner 0.02 µM) showed a relative viability (LK-2; first compound 0.002 µM) of 0.304, a relative viability (LK-2; first compound 0.006325 µM) of 0.187 and a relative viability (LK-2; first compound 0.02 µM) of 0.136. For the same molecule, the relative viability (LC-2-ad; first compound 0.0002 µM) was 0.886, the relative viability (LC-2-ad; first compound 0.000632 µM) was 0.737 and the relative viability (LC-2-ad; first compound 0.002 µM) was 0.345. The relative viability (LC-2-ad; first compound 0.006325 µM) was 0.297, the relative viability (LC-2-ad; first compound 0.02 µM) was 0.226 and the relative viability (NCI-H727; first compound 0.0002 µM) was 0.398. For the same molecule, the relative viability (NCI-H727; first compound 0.000632 µM) was 0.379, the relative viability (NCI-H727; first compound 0.002 µM) was 0.402 and the relative viability (NCI-H727; first compound 0.006325 µM) was 0.386. The relative viability (NCI-H727; first compound 0.02 µM) was 0.339, the relative viability (NCI-H1650; first compound 0.0002 µM) was 0.392 and the relative viability (NCI-H1650; first compound 0.000632 µM) was 0.4. For the same molecule, the relative viability (NCI-H1650; first compound 0.002 µM) was 0.217, the relative viability (NCI-H1650; first compound 0.006325 µM) was 0.107 and the relative viability (PC-14; first compound 0.0002 µM) was 0.648. It also gave a relative viability (PC-14; first compound 0.000632 µM) of 0.679, a relative viability (PC-14; first compound 0.002 µM) of 0.0905 and a relative viability (PC-14; first compound 0.006325 µM) of 0.0687. It also gave a relative viability (PC-14; first compound 0.02 µM) of 0.0257, a relative viability (LCLC-97TM1; first compound 0.0002 µM) of 0.171 and a relative viability (LCLC-97TM1; first compound 0.000632 µM) of 0.195. The relative viability (LCLC-97TM1; first compound 0.002 µM) was 0.148, the relative viability (LCLC-97TM1; first compound 0.006325 µM) was 0.108 and the relative viability (LCLC-97TM1; first compound 0.02 µM) was 0.08. The relative viability (COR-L23; first compound 0.0002 µM) was 0.528, the relative viability (COR-L23; first compound 0.000632 µM) was 0.579 and the relative viability (COR-L23; first compound 0.002 µM) was 0.223. The relative viability (COR-L23; first compound 0.006325 µM) was 0.155, the relative viability (COR-L23; first compound 0.02 µM) was 0.0909 and the relative viability (LCLC-103H; first compound 0.0002 µM) was 0.675. The relative viability (LCLC-103H; first compound 0.000632 µM) was 0.697, the relative viability (LCLC-103H; first compound 0.002 µM) was 0.727 and the relative viability (LCLC-103H; first compound 0.006325 µM) was 0.782. The relative viability (LCLC-103H; first compound 0.02 µM) was 0.592, the relative viability (NCI-H1793; first compound 0.0002 µM) was 0.378 and the relative viability (NCI-H1793; first compound 0.000632 µM) was 0.433. It also gave a relative viability (NCI-H1793; first compound 0.002 µM) of 0.384, a relative viability (NCI-H1793; first compound 0.006325 µM) of 0.316 and a relative viability (NCI-H1793; first compound 0.02 µM) of 0.272. It also gave a relative viability (NCI-H2347; first compound 0.0002 µM) of 0.243, a relative viability (NCI-H2347; first compound 0.000632 µM) of 0.349 and a relative viability (NCI-H2347; first compound 0.002 µM) of 0.262. For the same molecule, the relative viability (NCI-H2347; first compound 0.006325 µM) was 0.271, the relative viability (NCI-H2347; first compound 0.02 µM) was 0.229 and the relative viability (SW 900; first compound 0.0002 µM) was 0.802. For the same molecule, the relative viability (SW 900; first compound 0.000632 µM) was 0.287, the relative viability (SW 900; first compound 0.002 µM) was 0.232 and the relative viability (SW 900; first compound 0.02 µM) was 0.163.
